Measurements reported in patent publication US20180371256A1, “BENZOCOUMARIN-BASED TWO-PHOTON ABSORBING FLUORESCENT DYE” (POSTECH ACADEMY-INDUSTRY FOUNDATION, priority 2017, published 2018).
Entries after “also recorded” stand apart in the source; their conditions may differ.

Columns and labels:
[1] = UV/Vis absorbance spectra of benzocoumarin-based fluorescent dyes (wavelength of maximum absorbance); type: physicochemical; settings: 10 μM dye in HEPES buffer, PBS buffer, dioxane, ethanol, acetonitrile, dichloromethane, dimethylsulfoxide or toluene (1% DMSO); compared with Compounds 1c and 1g to 1l (FIG. 1)
Description: (§1) The inventors confirmed absorption characteristics of representative compounds among Compounds 1g to 1k, which are two-photon absorbing near-infrared fluorescent dyes, and Compounds 1a to 1f and 1l to 4g, which are two-photon absorbing fluorescent dyes, of the present invention, and the results are shown in FIG. 1.
Specifically, to confirm the characteristics of UV/Vis absorbance spectra of benzocoumarin-based near-infrared fluorescent dyes and derivatives thereof, the inventors measured UV/Vis absorbance spectra (measured using a HP8453 UV/Vis absorbance spectrophotometer) by charging a quartz cell with a 1-cm path length with 4-(2-hydroxyethyl)-1-piperazineethanesulfonic acid (HEPES) buffer, phosphate-buffered saline (PBS) buffer, dioxane, ethanol, acetonitrile, dichloromethane, dimethylsulfoxide, or a toluene solution (containing 1% DMSO), which contains 10 μM each of Compounds 1a to 4g, and the wavelength of maximum absorbance is shown in FIG. 1.

[2] = Fluorescence spectra of benzocoumarin-based fluorescent dyes; type: physicochemical; settings: 10 μM dye in HEPES buffer, dioxane, ethanol, acetonitrile, dichloromethane, dimethylsulfoxide or toluene (1% DMSO); compared with Compounds 1c and 1g to 1l (FIG. 2)
Description: as §1, with “2.” for “1.”
Specifically, to confirm the characteristics of fluorescent spectra of two-photon absorbing near-infrared fluorescent dyes, the inventors measured fluorescence spectra (measured using a photon technical international fluorescence system) by charging a quartz cell with a 1-cm path length with 4-(2-hydroxyethyl)-1-piperazineethanesulfonic acid (HEPES) buffer, […], dioxane, ethanol, acetonitrile, dichloromethane, dimethylsulfoxide, a toluene solution (containing 1% DMSO), which contains 10 μM each of Compounds 1a to 4g, and the wavelength of maximum absorbance is shown in FIG. 2.

mouse kidney tissue = experiment: Two-photon fluorescence microscopy imaging of mouse kidney tissue slices treated with dye; set-up: species or system mouse (Balb/C); settings: 10 μM
Method: The inventors observed fluorescent changes by two-photon microscopy after mouse tissue was treated with Compound 1g of the present invention, and the result is shown in FIG. 3.
Specifically, to observe a two-photon microscopy image of mouse tissue treated with Compound 1g, kidney tissue of a Balb/C type mouse (6 weeks old) was used, and an experiment was carried out under a light-protected condition (dark room). The mouse kidney tissue was dissected and washed with a PBS buffer solution, and then each organ was frozen over dry-ice for 5 minutes. The frozen organs were crushed with a hammer, and then a tissue slice sample was prepared to a thickness of 16 μm using a cutter (Cryostat machine, Leica, CM3000 model). […] The tissue slice sample was put on a specimen block (Paul Marienfeld GMbH & Co.), and the specimen block was immersed in 4% paraformaldehyde for 10 minutes and washed with a PBS buffer solution, and then the tissue was fixed again using a mount solution (Gel Mount, BIOMEDA). The prepared tissue slice sample was immersed in a PBS buffer solution containing Compound 1g and acedan or IminoPOS at a concentration of 10 μM for 10 minutes, washed with a PBS buffer solution three times, and then fixed with 4% paraformaldehyde, followed by observation of fluorescence. […]

Row | SMILES | wavelengths of maximum absorbance [1] | wavelengths of maximum absorbance (fluorescence spectra, FIG. 2) [2] | quality of two-photon fluorescence image (mouse kidney tissue; depths 25, 125, 175 μm, compared to acedan or IminoPOS (conventional two-photon dyes), FIG. 3c) | signal/noise (S/N) ratio of two-photon tissue image (mouse kidney tissue; two-photon excitation 900 nm, surface layer to middle depth (50 to 150 μm), compared to acedan (800 nm) and IminoPOS (850 nm), FIG. 3b)
1 | O=c1oc2cc3cc(N4CCCC4)ccc3cc2cc1-c1ccncc1 [Compound 1a, 3-(pyridine-4-yl)-8-(pyrrolidine-1-yl)-2H-benzo[g]chromene-2-one] | did not have a significant difference | did not have a significant difference | – | –
2 | CN(C)c1ccc2cc3cc(-c4ccncc4)c(=O)oc3cc2c1 [Compound 1b, 8-(dimethylamino)-3-(pyridine-4-yl)-2H-benzo[g]chromene-2-one] | did not have a significant difference | did not have a significant difference | – | –
3 | CNc1ccc2cc3cc(-c4ccncc4)c(=O)oc3cc2c1 [Compound 1d, 8-(methylamino)-3-(pyridine-4-yl)-2H-benzo[g]chromene-2-one] | did not have a significant difference | did not have a significant difference | – | –
4 | C=CCNc1ccc2cc3cc(-c4ccncc4)c(=O)oc3cc2c1 [Compound 1e, 8-(allylamino)-3-(pyridine-4-yl)-2H-benzo[g]chromene-2-one] | did not have a significant difference | did not have a significant difference | – | –
5 | Nc1ccc2cc3cc(-c4ccncc4)c(=O)oc3cc2c1 [Compound 1f, 8-amino-3-(pyridine-4-yl)-2H-benzo[g]chromene-2-one] | did not have a significant difference | did not have a significant difference | – | –
6 | C[n+]1ccc(-c2cc3cc4ccc(N5CCCC5)cc4cc3oc2=O)cc1.[OH-] [Compound 1g, 1-methyl-4-(2-oxo-8-(pyrrolidine-1-yl)-2H-benzo[g]chromene-3-yl)pyridinium trifluoromethanesulfonate] | – | – | superior fluorescence image; also recorded: high-definition and high-contrast image | increased
